The source of these data is patent publication US6383773B2, “Penicillin conversion” (Massachusetts Institute of Technology, priority 1998, dated 2002).

The target of assay [1] is T1, S. clavuligerus expandase (Streptomyces clavuligerus, UniProt P18548).
T1 construct: endogenous in cells; host or cells: S. clavuligerus mutant NP1, crude cell-free extract
The assay is described as follows: Penicillin ring expansion by cell-free S. clavuligerus expandase extracts, paper disc-agar diffusion bioassay. The assay is classed as biochemical. The conditions noted are these: for DAOG: cell-free extract. Here is the method:
Preparation of Cell-free Extracts: Fermentation broths were centrifuged at 8,000×g and 4° C. for 10 min. Pellets were washed twice using 50 mM Tris-HCI supplemented with 0.1 mM dithiothreitol (DTT). The cells were resuspended in the same buffer and disrupted by four 25-sec. sonication treatments (power setting 5 and duty cycle 50%), in an ice-water bath using a Branson 350 sonifier (Branson Sonic Power Co., Danbury, Conn.). Cell debris was removed by centrifugation (14,000×g, 30 min., 4° C.). The resulting extracts containing 8-10 mg protein/ml were placed on ice and utilized immediately. Protein concentrations were measured using the Bio-Rad protein assay (Bio-Rad, Hercules, Calif.). Bovine serum albumin was used as standard.
Ring Expansion Reaction: We defined ring expansion reaction conditions as modifications of the standard reaction mixture for expandase reactions described by Maeda et al. (Maeda et al., Enzyme Microb. Technol. 17:231-34, 1995) except that penicillin G was used a substrate instead of penicillin N. Additions were made following the order established by Shen et al. (Shen et al., Enzyme Microb. Technol. 6:402-404, 1984. Reaction mixtures were incubated in test tubes (cell-free extract) or 250 ml baffled flasks (resting cells) at 220 rpm, 30° C. Reactions containing the protein extract were stopped at various times (see Table 1 and Figure Legends) by mixing 0.5 ml of assay solution with 0.5 ml of methanol. In the case of resting cells, samples were centrifuged to remove cells and supernatants were transferred to new tubes. Expandase activity was detected by paper disc-agar diffusion bioassay.
Detection of Expandase Activity: As mentioned above, expandase activity was detected by assaying production of a growth-inhibitory zone in a paper disc-agar diffusion bioassay. Paper discs were saturated with 200 μl of the reaction mixture (cell-free extracts or supernatant (resting cells) as follows. Two discs were superimposed and four 50 μl samples were applied. After each application, the discs were allowed to dry for 20 min at 37° C. under a laminar hood and, finally, they were placed on LB (1% tryptone, 0.5% NaCl, 0.5% yeast extract, 0.1% glucose) 0.8% agar medium seeded with E. coli ESS (a β-lactam supersensitive mutant), and the plates were incubated overnight at 37° C. The formation of DAOG and/or other cephalosporin(s) was determined by including 50,000 IU/ml of penicillinase (Difco Bacto penase concentrate, Difco Laboratories, Detroit, Mich.) in the assay plates. This penicillinase is a narrow spectrum β-lactamase that attacks penicillins but not cephalosporins. The diameters of zones of growth inhibition were measured and quantified with a calibration curve using DAOG as standard.
Ring Expansion of Other Penicillins by Cell-free Extracts: We tested our reaction conditions for their ability to support ring expansion on other penicillin substrates and found detectable expansion with each of the 15 substrates that we tested. […] The reactions contained 4 mg/ml extract (protein concentration), 50 mM Tris-HCl pH 7.4, 1.8 mM FeSO4, 1.28 mM α-ketoglutarate, 8 mM MgSO4, 8 mM KCl, 4 mM ascorbic acid, 14 mM DTT, and 2 mg/ml substrate (except for penicillin mX and octanoyl-6-APA, which were used at 3 mg/ml). Samples were centrifuged at 12K rpm for 5 minutes after 2 hours of reaction. 250 μl of reaction mixture was used in each bioassay.

Assay [2] concerns the target T2, expandase from N. lactamdurans (Amycolatopsis lactamdurans, UniProt Q03047).
T2 construct: made in house; host or cells: S. lividans 1326 transformed with pUL702-202a, crude cell-free extract
The assay can be described thus: Ring expansion by cell-free extracts of S. lividans containing pUL702-202a (Example 7). The assay is classed as biochemical. The conditions noted are these: S. lividans pUL702-202a cell-free extract 6 mg/ml protein, substrate 5.6 mM, after 2 h of reaction. The procedure: Microorganism, Medium and Culture Conditions: S. lividans 1326 was used in all experiments. Cultures were grown in 250 ml baffled flasks containing 40 ml of MST medium. Each flask was inoculated with 50 μl of a spore suspension (prepared and stored at −80° C. in 20% glycerol) and incubated at 30° C., 250 rpm, for 48 h.
Plasmids: The plasmid pUL702-202a was a gift from J. F. Martin (University of León, Spain). This vector harboured a 4.3 Kb BglII fragment containing the epimerase and expandase genes from Nocardia lactamdurans inserted at the BglII site on pIJ702. The plasmid pHJ11 was constructed by cloning a 3 Kb BglII fragment containing the expandase gene from S. clavuligerus 3585 into pIJ702 at the BglII site.
Ring Expansion Reaction: The ring expansion mixture contained 1.8 mM FeSO4, 1.28 mM α-ketoglutarate, 6 mg/ml protein (cell-free extract), 8 mM KCl, 8 mM MgSO4, 14 mM DTT and 50 mM TrisHCl (pH 7.4) in a final volume of 2.5 ml. Substrate concentration was 5.6 mM. Additions were made following the order established by Shen et al. (Enzyme Microb. Technol. 6:402-404, 1984). Reaction mixtures were incubated in test tubes at 220 rpm, 30° C. At different times, 0.5 ml samples were taken and the reaction was stopped by adding 0.5 ml of methanol. […] Biotransformation activity was detected by paper disc-agar diffusion bioassay. […]

T1 sequence (P18548 whole entry): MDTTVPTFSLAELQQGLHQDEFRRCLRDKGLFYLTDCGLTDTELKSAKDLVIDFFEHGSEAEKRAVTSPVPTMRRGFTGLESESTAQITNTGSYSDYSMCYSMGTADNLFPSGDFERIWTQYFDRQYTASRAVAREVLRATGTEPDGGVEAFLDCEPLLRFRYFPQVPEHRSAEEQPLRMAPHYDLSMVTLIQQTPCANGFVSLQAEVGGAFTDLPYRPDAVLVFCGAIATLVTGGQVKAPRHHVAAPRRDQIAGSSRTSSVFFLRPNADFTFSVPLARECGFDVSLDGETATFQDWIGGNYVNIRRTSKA
T2 sequence (Q03047 whole entry): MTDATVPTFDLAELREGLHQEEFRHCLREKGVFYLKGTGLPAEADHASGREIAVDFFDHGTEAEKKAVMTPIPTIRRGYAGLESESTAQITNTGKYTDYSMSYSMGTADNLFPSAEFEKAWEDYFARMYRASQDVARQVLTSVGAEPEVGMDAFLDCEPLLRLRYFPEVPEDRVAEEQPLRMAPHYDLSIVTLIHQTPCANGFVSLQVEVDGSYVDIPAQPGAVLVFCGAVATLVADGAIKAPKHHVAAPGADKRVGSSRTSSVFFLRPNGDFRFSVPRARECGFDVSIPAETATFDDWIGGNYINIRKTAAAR

Regarding `CC1(C)S[C@@H]2[C@H](NC(=O)Cc3ccccc3)C(=O)N2[C@H]1C(=O)O` [Penicillin G, penicillin G], the “Ring expansion, size of zones of inhibition” value in assay [1] (4 mg/ml extract protein, 2 mg/ml substrate (penicillin mX and octanoyl-6-APA 3 mg/ml), 2 hours) is given as “Large zones of inhibition”. Also, in assay [1] (4 mg/ml extract protein, 2 mg/ml substrate, 2 hours of reaction, 250 μl in bioassay (E. coli ESS, penicillinase)), the “Inhibition Zone Diameter” value is given as 29 mm. Moreover, the DAOG in assay [1] (protein 1 mg/ml, FeSO4 0.036 mM, α-ketoglutarate 0.64 mM, penicillin G 0.1 mg/ml) is below 2 µg/mL; in assay [1] (protein 1 mg/ml, FeSO4 0.036 mM, α-ketoglutarate 0.64 mM, penicillin G 0.3 mg/ml), below 2 µg/mL; in assay [1] (protein 1 mg/ml, FeSO4 0.036 mM, α-ketoglutarate 0.64 mM, penicillin G 1 mg/ml) it was 2.1 µg/mL; in assay [1] (protein 1 mg/ml, FeSO4 1.8 mM, α-ketoglutarate 1.28 mM, penicillin G 0.1 mg/ml), below 2 µg/mL; in assay [1] (protein 1 mg/ml, FeSO4 1.8 mM, α-ketoglutarate 1.28 mM, penicillin G 0.3 mg/ml), below 2 µg/mL; in assay [1] (protein 1 mg/ml, FeSO4 1.8 mM, α-ketoglutarate 1.28 mM, penicillin G 1 mg/ml), 2.1 µg/mL. For the same molecule, the DAOG in assay [1] (protein 2 mg/ml, FeSO4 0.036 mM, α-ketoglutarate 0.64 mM, penicillin G 0.1 mg/ml) is below 2 µg/mL; in assay [1] (protein 2 mg/ml, FeSO4 0.036 mM, α-ketoglutarate 0.64 mM, penicillin G 0.3 mg/ml) it was 2.1 µg/mL; in assay [1] (protein 2 mg/ml, FeSO4 0.036 mM, α-ketoglutarate 0.64 mM, penicillin G 1 mg/ml), 2.6 µg/mL; in assay [1] (protein 2 mg/ml, FeSO4 1.8 mM, α-ketoglutarate 1.28 mM, penicillin G 0.1 mg/ml), 2.1 µg/mL; in assay [1] (protein 2 mg/ml, FeSO4 1.8 mM, α-ketoglutarate 1.28 mM, penicillin G 0.3 mg/ml), 2.3 µg/mL; in assay [1] (protein 2 mg/ml, FeSO4 1.8 mM, α-ketoglutarate 1.28 mM, penicillin G 1 mg/ml), 3.4 µg/mL. Moreover, the DAOG in assay [1] (protein 4 mg/ml, FeSO4 0.036 mM, α-ketoglutarate 0.64 mM, penicillin G 0.1 mg/ml) worked out at 2.3 µg/mL; in assay [1] (protein 4 mg/ml, FeSO4 0.036 mM, α-ketoglutarate 0.64 mM, penicillin G 0.3 mg/ml), 2.6 µg/mL; in assay [1] (protein 4 mg/ml, FeSO4 0.036 mM, α-ketoglutarate 0.64 mM, penicillin G 1 mg/ml), 3.4 µg/mL; in assay [1] (protein 4 mg/ml, FeSO4 1.8 mM, α-ketoglutarate 1.28 mM, penicillin G 0.1 mg/ml), 2.8 µg/mL; in assay [1] (protein 4 mg/ml, FeSO4 1.8 mM, α-ketoglutarate 1.28 mM, penicillin G 0.3 mg/ml) it was 3.4 µg/mL; in assay [1] (protein 4 mg/ml, FeSO4 1.8 mM, α-ketoglutarate 1.28 mM, penicillin G 1 mg/ml), 5.6 µg/mL. The production of cephalosporins result in assay [2] is “approximately 8 μg/ml”.
